{
  "source": "patent US9855245B2",
  "about": "“Methods for improving lipid profiles using atrasentan” (AbbVie Inc., priority 2013, dated 2018)",
  "system": "subjects with type 2 diabetes and nephropathy",
  "experiment": "Example 1: Phase 2b randomized, double-blind, placebo-controlled 12-week clinical study",
  "details": "for Weight, LS Mean Change from Baseline (SE): Week 12; for UACR Change from Baseline LS Mean (SE) / UACR Geometric Mean Change (Percent): baseline to final on-treatment measurement",
  "note": "Values joined by “and” are separate entries in the source; they are usually repeats but may differ in a detail not shown here. Equal entries are not always repeated.",
  "data": [
    {"compound": "CCCCN(CCCC)C(=O)CN1C[C@H](c2ccc3c(c2)OCO3)[C@@H](C(=O)O)[C@@H]1c1ccc(OC)cc1", "note": "[Atrasentan, (2R,3R,4S)-4-(1,3-benzodioxol-5-yl)-1-[2-(dibutylamino)-2-oxoethyl]-2-(4-methoxyphenyl)pyrrolidine-3-carboxylic acid]", "values": [
      {"measurement": "Triglycerides, LS Mean Change from Baseline (SE)", "setting": "0.75 mg/day", "result": "−4.3 (16.05) mg/dL"},
      {"measurement": "Weight, Difference (95% CI) from placebo", "setting": "0.75 mg/day", "result": "−0.1 (−2.32, 2.07) kg"},
      {"measurement": "Weight, Final On-Treatment Visit Mean (SD)", "setting": "0.75 mg/day", "result": "93.0 (21.28) kg"},
      {"measurement": "decrease in weight at Week 12", "setting": "0.75 mg/day", "result": 0.8, "unit": "kg"},
      {"measurement": "diastolic blood pressure, mean change from baseline to last on-treatment visit", "setting": "0.75 mg/day", "result": "−1.49", "unit": "mmHg"},
      {"measurement": "direct effect on change in UACR (path analysis vs change in systolic blood pressure)", "setting": "0.75 mg/day", "result": 97.52, "unit": "%"},
      {"measurement": "fatigue leading to discontinuation", "setting": "0.75 mg/day", "result": 1.7, "unit": "%"},
      {"measurement": "geometric mean reduction in UACR, baseline to final on-treatment measurement", "setting": "0.75 mg/day", "result": 37.7, "unit": "%"},
      {"measurement": "incidence of anemia", "setting": "0.75 mg/day", "result": 6.8, "unit": "%"},
      {"measurement": "incidence of peripheral edema", "setting": "0.75 mg/day", "result": 32.2, "unit": "%"},
      {"measurement": "mean changes in weight vs placebo (repeated-measures analysis)", "setting": "0.75 mg/day", "result": "statistically significantly different from placebo only at Week 2"},
      {"measurement": "mean diastolic blood pressure, difference from baseline", "setting": "0.75 mg/day", "result": "statistically significant at Weeks 1, 4, and 6"},
      {"measurement": "mean systolic blood pressure, difference from baseline", "setting": "0.75 mg/day", "result": "statistically significant at Week 4"},
      {"measurement": "peripheral edema leading to discontinuation", "setting": "0.75 mg/day", "result": 3.4, "unit": "%"},
      {"measurement": "subjects discontinued because of an adverse event", "setting": "0.75 mg/day", "result": 5, "unit": "subjects"},
      {"measurement": "subjects discontinued prematurely from the study", "setting": "0.75 mg/day", "result": 13.6, "unit": "%"},
      {"measurement": "subjects who discontinued study drug because of adverse events", "setting": "0.75 mg/day", "result": 8.5, "unit": "%"},
      {"measurement": "subjects with adverse event infection", "setting": "0.75 mg/day", "result": 3.4, "unit": "%"},
      {"measurement": "systolic blood pressure, mean change from baseline to last on-treatment visit", "setting": "0.75 mg/day", "result": "−2.44", "unit": "mmHg"},
      {"measurement": "weight, mean change from baseline to last on-treatment visit", "setting": "0.75 mg/day", "result": -1.20, "unit": "kg"},
      {"measurement": "UACR Between-group Comparison Difference (90% CI)", "setting": "0.75 mg/day vs placebo", "result": "−0.47 (−0.71, −0.22)"},
      {"measurement": "Weight, LS Mean Change from Baseline (SE)", "setting": "0.75 mg/day", "result": "−0.8 (0.69) kg"},
      {"measurement": "UACR Change from Baseline LS Mean (SE)", "setting": "0.75 mg/day", "result": "−0.47 (0.12) log mg/g creatinine"},
      {"measurement": "UACR Geometric Mean Change (Percent)", "setting": "0.75 mg/day", "result": "−37.77", "unit": "%"},
      {"measurement": "Any adverse event", "setting": "1.25 mg, N = 64", "result": "47 (73.4) N (%) of Subjects"},
      {"measurement": "Any adverse event leading to discontinuation of study drug", "setting": "1.25 mg, N = 64", "result": "7 (10.9) N (%) of Subjects"},
      {"measurement": "Death", "setting": "1.25 mg, N = 64", "result": "0 N (%) of Subjects"},
      {"measurement": "Fatal adverse event", "setting": "1.25 mg, N = 64", "result": "0 N (%) of Subjects"},
      {"measurement": "Possibly or probably drug-related adverse event", "setting": "1.25 mg, N = 64", "result": "27 (42.2) N (%) of Subjects"},
      {"measurement": "Serious adverse event", "setting": "1.25 mg, N = 64", "result": "4 (6.3) N (%) of Subjects"},
      {"measurement": "Severe adverse event", "setting": "1.25 mg, N = 64", "result": "1 (1.6) N (%) of Subjects"},
      {"measurement": "Cholesterol, Difference (95% CI) from placebo", "setting": "1.25 mg/day", "result": "−17.2 (−31.60, −2.88) mg/dL"},
      {"measurement": "Cholesterol, Final On-Treatment Visit Mean (SD)", "setting": "1.25 mg/day", "result": "147.6 (33.53) mg/dL"},
      {"measurement": "Cholesterol, LS Mean Change from Baseline (SE)", "setting": "1.25 mg/day", "result": "−16.2 (3.75) mg/dL"},
      {"measurement": "HDL-C, Difference (95% CI) from placebo", "setting": "1.25 mg/day", "result": "2.2 (−1.61, 6.08) mg/dL"},
      {"measurement": "HDL-C, Final On-Treatment Visit Mean (SD)", "setting": "1.25 mg/day", "result": "43.4 (10.51) mg/dL"},
      {"measurement": "HDL-C, LS Mean Change from Baseline (SE)", "setting": "1.25 mg/day", "result": "−0.2 (1.00) mg/dL"},
      {"measurement": "Had ≧30% Reduction in UACR and No Edema (no moderate or severe adverse event of edema)", "setting": "1.25 mg/day", "result": "28 (45.9) Number (%) of Subjects"},
      {"measurement": "Hemoglobin, Difference (95% CI) from placebo", "setting": "1.25 mg/day", "result": "−0.98 (−1.462, −0.505) g/dL"},
      {"measurement": "Hemoglobin, Final On-Treatment Visit Mean (SD)", "setting": "1.25 mg/day", "result": "11.79 (1.702) g/dL"},
      {"measurement": "Hemoglobin, LS Mean Change from Baseline (SE)", "setting": "1.25 mg/day", "result": "−1.02 (0.120) g/dL"},
      {"measurement": "LDL-C, Difference (95% CI) from placebo", "setting": "1.25 mg/day", "result": "−13.1 (−23.98, −2.29) mg/dL"},
      {"measurement": "LDL-C, Final On-Treatment Visit Mean (SD)", "setting": "1.25 mg/day", "result": "69.5 (22.54) mg/dL"},
      {"measurement": "LDL-C, LS Mean Change from Baseline (SE)", "setting": "1.25 mg/day", "result": "−11.0 (2.83) mg/dL"},
      {"measurement": "Percentage of Subjects with ≧30% Reduction in Log-Transformed UACR from Baseline to Final Measurement", "setting": "1.25 mg/day", "result": 52.5, "unit": "%"},
      {"measurement": "Percentage of Subjects with ≧40% Reduction in Log-Transformed UACR from Baseline to Final Measurement", "setting": "1.25 mg/day", "result": 36.1, "unit": "%"},
      {"measurement": "Percentage of Subjects with ≧50% Reduction in Log-Transformed UACR from Baseline to Final Measurement", "setting": "1.25 mg/day", "result": 29.5, "unit": "%"},
      {"measurement": "Triglycerides, Difference (95% CI) from placebo", "setting": "1.25 mg/day", "result": "−64.6 (−123.32, −5.97) mg/dL"},
      {"measurement": "Triglycerides, Final On-Treatment Visit Mean (SD)", "setting": "1.25 mg/day", "result": "167.4 (84.98) mg/dL"},
      {"measurement": "Triglycerides, LS Mean Change from Baseline (SE)", "setting": "1.25 mg/day", "result": "−31.4 (15.31) mg/dL"},
      {"measurement": "Weight, Final On-Treatment Visit Mean (SD)", "setting": "1.25 mg/day", "result": "92.6 (18.74) kg"},
      {"measurement": "diastolic blood pressure, mean change from baseline to last on-treatment visit", "setting": "1.25 mg/day", "result": "−2.74", "unit": "mmHg"},
      {"measurement": "fatigue leading to discontinuation", "setting": "1.25 mg/day", "result": 3.1, "unit": "%"},
      {"measurement": "geometric mean reduction in UACR, baseline to final on-treatment measurement", "setting": "1.25 mg/day", "result": 40.7, "unit": "%"},
      {"measurement": "incidence of anemia", "setting": "1.25 mg/day", "result": 4.7, "unit": "%"},
      {"measurement": "incidence of peripheral edema", "setting": "1.25 mg/day", "result": 42.2, "unit": "%"},
      {"measurement": "mean diastolic blood pressure, difference from baseline", "setting": "1.25 mg/day", "result": "statistically significant from Weeks 1 through 10"},
      {"measurement": "mean increases in weight vs placebo (repeated-measures analysis)", "setting": "1.25 mg/day", "result": "statistically significantly different from the mean changes with placebo from Week 1 through Week 8"},
      {"measurement": "mean systolic blood pressure, difference from baseline", "setting": "1.25 mg/day", "result": "statistically significant at Weeks 1, 8, and 10"},
      {"measurement": "peripheral edema leading to discontinuation", "setting": "1.25 mg/day", "result": 4.7, "unit": "%"},
      {"measurement": "subjects discontinued because of an adverse event", "setting": "1.25 mg/day", "result": 7, "unit": "subjects"},
      {"measurement": "subjects discontinued prematurely from the study", "setting": "1.25 mg/day", "result": 15.6, "unit": "%"},
      {"measurement": "subjects who discontinued study drug because of adverse events", "setting": "1.25 mg/day", "result": 10.9, "unit": "%"},
      {"measurement": "subjects with adverse event infection", "setting": "1.25 mg/day", "result": 0, "unit": "%"},
      {"measurement": "systolic blood pressure, mean change from baseline to last on-treatment visit", "setting": "1.25 mg/day", "result": "−2.98", "unit": "mmHg"},
      {"measurement": "triglycerides, difference from placebo", "setting": "1.25 mg/day", "result": "statistically significant"},
      {"measurement": "weight, mean change from baseline to last on-treatment visit", "setting": "1.25 mg/day", "result": 2.02, "unit": "kg"},
      {"measurement": "UACR Between-group Comparison Difference (90% CI)", "setting": "1.25 mg/day vs placebo", "result": "−0.51 (−0.75, −0.28)"},
      {"measurement": "mean ambulatory systolic blood pressure, difference from placebo", "setting": "1.25 mg/day, Week 6", "result": "statistically significant difference"},
      {"measurement": "Weight, LS Mean Change from Baseline (SE)", "setting": "1.25 mg/day", "result": "0.6 kg and 0.6 (0.66) kg"},
      {"measurement": "UACR Change from Baseline LS Mean (SE)", "setting": "1.25 mg/day", "result": "−0.52 (0.11) log mg/g creatinine"},
      {"measurement": "UACR Geometric Mean Change (Percent)", "setting": "1.25 mg/day", "result": "−40.67", "unit": "%"},
      {"measurement": "mean HDL-C change", "setting": "all treatment groups, change not clinically meaningful", "result": "decreased slightly"},
      {"measurement": "hemoglobin relative to placebo", "setting": "both atrasentan groups, at Week 2 and throughout the study", "result": "Statistically significantly mean decreases"}
    ]}
  ]
}
